Laboratory results: PubChem BioAssay AID1963863 (Molecular Pharmacology Branch, DTP, NCI, 2024)

System: 931267-113-T-J1-PDC KRAS spheroid with HUVEC/MSC, viability
Experiment: Anticancer human tumor 931267-113-T-J1-PDC patient-derived colon adenocarcinoma cell line growth inhibition [KRAS2]
Details: for IC50: curve of first compound; for viability, T/C: stronger effect = lower value
How it was run: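 KRAS-mutant tumor cells were grown as spheroids with HUVEC endothelial cells and human MSCs as stroma. Targeted agents were tested alone and with KRAS pathway inhibitors. Doses started at or near clinical Cmax, or 10 microM, descending half-log.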

[1] = second compound 0.1 µM, first compound 0.0316 µM
[2] = second compound 0.316 µM, first compound 0.0316 µM
[3] = second compound 1 µM, first compound 0.0316 µM
[4] = second compound 3.16 µM, first compound 0.0316 µM
[5] = second compound 10 µM, first compound 0.0316 µM
[6] = second compound 0.1 µM, first compound 0.1 µM
[7] = second compound 0.1 µM, first compound 0.316 µM
[8] = second compound 0.1 µM, first compound 1 µM
[9] = second compound 0.1 µM, first compound 3.16 µM
[10] = second compound 0.1 µM, first compound 10 µM
[11] = second compound 0.316 µM, first compound 0.1 µM
[12] = second compound 0.316 µM, first compound 0.316 µM
[13] = second compound 0.316 µM, first compound 1 µM
[14] = second compound 0.316 µM, first compound 3.16 µM
[15] = second compound 0.316 µM, first compound 10 µM
[16] = second compound 1 µM, first compound 0.1 µM
[17] = second compound 1 µM, first compound 0.316 µM
[18] = second compound 1 µM, first compound 1 µM
[19] = second compound 1 µM, first compound 3.16 µM
[20] = second compound 1 µM, first compound 10 µM
[21] = second compound 3.16 µM, first compound 0.1 µM
[22] = second compound 3.16 µM, first compound 0.316 µM
[23] = second compound 3.16 µM, first compound 1 µM
[24] = second compound 3.16 µM, first compound 3.16 µM
[25] = second compound 3.16 µM, first compound 10 µM
[26] = second compound 10 µM, first compound 0.1 µM
[27] = second compound 10 µM, first compound 0.316 µM
[28] = second compound 10 µM, first compound 1 µM
[29] = second compound 10 µM, first compound 3.16 µM
[30] = second compound 10 µM, first compound 10 µM
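Also: compound exposure lasted 7 days before the readout.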
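For viability, T/C in this document: 100% = DMSO vehicle control viability.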

Structure (SMILES): CC(=O)Nc1cccc(-n2c(=O)n(C3CC3)c(=O)c3c(Nc4ccc(I)cc4F)n(C)c(=O)c(C)c32)c1 + CNCc1ccccc1-c1csc(C(C)Nc2nc(C)nc3cc(OC)c(OC)cc23)c1
- IC50 (second compound 0.1 µM): 9.09 nM
- IC50 (second compound 0.316 µM): 6.7 nM
- IC50 (second compound 1 µM): < 0.1 nM
- IC50 (second compound 3.16 µM): < 0.1 nM
- IC50 (second compound 10 µM): < 0.1 nM
- viability, T/C (second compound 0.1 µM, first compound 0.0001 µM): 86.5%
- viability, T/C (second compound 0.1 µM, first compound 0.000316 µM): 89.1%
- viability, T/C (second compound 0.1 µM, first compound 0.001 µM): 75.8%
- viability, T/C (second compound 0.1 µM, first compound 0.00316 µM): 59.7%
- viability, T/C (second compound 0.1 µM, first compound 0.01 µM): 56%
- viability, T/C [1]: 14.1%
- viability, T/C (second compound 0.316 µM, first compound 0.0001 µM): 91.8%
- viability, T/C (second compound 0.316 µM, first compound 0.000316 µM): 111%
- viability, T/C (second compound 0.316 µM, first compound 0.001 µM): 83.3%
- viability, T/C (second compound 0.316 µM, first compound 0.00316 µM): 60.8%
- viability, T/C (second compound 0.316 µM, first compound 0.01 µM): 47.8%
- viability, T/C [2]: 25.3%
- viability, T/C (second compound 1 µM, first compound 0.0001 µM): 50.4%
- viability, T/C (second compound 1 µM, first compound 0.000316 µM): 17%
- viability, T/C (second compound 1 µM, first compound 0.001 µM): 1.23%
- viability, T/C (second compound 1 µM, first compound 0.00316 µM): 10.3%
- viability, T/C (second compound 1 µM, first compound 0.01 µM): 2.02%
- viability, T/C [3]: 1.26%
- viability, T/C (second compound 3.16 µM, first compound 0.0001 µM): 1.06%
- viability, T/C (second compound 3.16 µM, first compound 0.000316 µM): 0.32%
- viability, T/C (second compound 3.16 µM, first compound 0.001 µM): 0.34%
- viability, T/C (second compound 3.16 µM, first compound 0.00316 µM): 0.19%
- viability, T/C (second compound 3.16 µM, first compound 0.01 µM): 0.19%
- viability, T/C [4]: 0.41%
- viability, T/C (second compound 10 µM, first compound 0.0001 µM): 0.57%
- viability, T/C (second compound 10 µM, first compound 0.000316 µM): 0.16%
- viability, T/C (second compound 10 µM, first compound 0.001 µM): 0.14%
- viability, T/C (second compound 10 µM, first compound 0.00316 µM): 0.13%
- viability, T/C (second compound 10 µM, first compound 0.01 µM): 0.15%
- viability, T/C [5]: 2.55%

Structure (SMILES): COC(=O)c1ccc2c(C(=Nc3ccc(N(C)C(=O)CN4CCN(C)CC4)cc3)c3ccccc3)c(O)[nH]c2c1 + CNCc1ccccc1-c1csc(C(C)Nc2nc(C)nc3cc(OC)c(OC)cc23)c1
- IC50 (second compound 0.1 µM): 480 nM
- IC50 (second compound 0.316 µM): 356 nM
- IC50 (second compound 1 µM): 452 nM
- IC50 (second compound 3.16 µM): < 31.6 nM
- IC50 (second compound 10 µM): < 31.6 nM
- viability, T/C [1]: 65.7%
- viability, T/C [6]: 81%
- viability, T/C [7]: 58%
- viability, T/C [8]: 31%
- viability, T/C [9]: 0.36%
- viability, T/C [10]: 0.19%
- viability, T/C [2]: 76.5%
- viability, T/C [11]: 86.1%
- viability, T/C [12]: 55.6%
- viability, T/C [13]: 2.09%
- viability, T/C [14]: 0.23%
- viability, T/C [15]: 0.33%
- viability, T/C [3]: 84.5%
- viability, T/C [16]: 99.3%
- viability, T/C [17]: 72%
- viability, T/C [18]: 2.29%
- viability, T/C [19]: 0.7%
- viability, T/C [20]: 0.32%
- viability, T/C [4]: 0.3%
- viability, T/C [21]: 0.33%
- viability, T/C [22]: 0.17%
- viability, T/C [23]: 0.16%
- viability, T/C [24]: 0.15%
- viability, T/C [25]: 0.2%
- viability, T/C [5]: 0.24%
- viability, T/C [26]: 0.28%
- viability, T/C [27]: 0.13%
- viability, T/C [28]: 0.12%
- viability, T/C [29]: 0.14%
- viability, T/C [30]: 0.29%

Structure (SMILES): COc1cc(Nc2ncc3c(n2)-c2ccc(Cl)cc2C(c2c(F)cccc2OC)=NC3)ccc1C(=O)O + CNCc1ccccc1-c1csc(C(C)Nc2nc(C)nc3cc(OC)c(OC)cc23)c1
- IC50 (second compound 0.1 µM): > 10000 nM
- IC50 (second compound 0.316 µM): > 10000 nM
- IC50 (second compound 1 µM): < 31.6 nM
- IC50 (second compound 3.16 µM): < 31.6 nM
- IC50 (second compound 10 µM): < 31.6 nM
- viability, T/C [1]: 78.9%
- viability, T/C [6]: 87%
- viability, T/C [7]: 85.5%
- viability, T/C [8]: 72.3%
- viability, T/C [9]: 87.4%
- viability, T/C [10]: 62.1%
- viability, T/C [2]: 122%
- viability, T/C [11]: 106%
- viability, T/C [12]: 154%
- viability, T/C [13]: 86.6%
- viability, T/C [14]: 77.5%
- viability, T/C [15]: 64.2%
- viability, T/C [3]: 18.7%
- viability, T/C [16]: 36.5%
- viability, T/C [17]: 18.4%
- viability, T/C [18]: 26%
- viability, T/C [19]: 25.9%
- viability, T/C [20]: 25.6%
- viability, T/C [4]: 0.23%
- viability, T/C [21]: 0.31%
- viability, T/C [22]: 0.33%
- viability, T/C [23]: 0.21%
- viability, T/C [24]: 0.2%
- viability, T/C [25]: 0.35%
- viability, T/C [5]: 0.26%
- viability, T/C [26]: 0.16%
- viability, T/C [27]: 0.23%
- viability, T/C [28]: 0.16%
- viability, T/C [29]: 0.16%
- viability, T/C [30]: 0.31%

Structure (SMILES): O=C(c1cc(Cc2n[nH]c(=O)c3ccccc23)ccc1F)N1CCN(C(=O)C2CC2)CC1 + CNCc1ccccc1-c1csc(C(C)Nc2nc(C)nc3cc(OC)c(OC)cc23)c1
- IC50 (second compound 0.1 µM): > 10000 nM
- IC50 (second compound 0.316 µM): > 10000 nM
- IC50 (second compound 1 µM): > 10000 nM
- IC50 (second compound 3.16 µM): < 31.6 nM
- IC50 (second compound 10 µM): < 31.6 nM
- viability, T/C [1]: 98.8%
- viability, T/C [6]: 100%
- viability, T/C [7]: 86.8%
- viability, T/C [8]: 85.9%
- viability, T/C [9]: 61.9%
- viability, T/C [10]: 72.2%
- viability, T/C [2]: 106%
- viability, T/C [11]: 88.5%
- viability, T/C [12]: 98%
- viability, T/C [13]: 88.5%
- viability, T/C [14]: 82.7%
- viability, T/C [15]: 80%
- viability, T/C [3]: 114%
- viability, T/C [16]: 113%
- viability, T/C [17]: 108%
- viability, T/C [18]: 96.6%
- viability, T/C [19]: 112%
- viability, T/C [20]: 75.6%
- viability, T/C [4]: 0.55%
- viability, T/C [21]: 0.34%
- viability, T/C [22]: 0.4%
- viability, T/C [23]: 0.47%
- viability, T/C [24]: 0.43%
- viability, T/C [25]: 0.38%
- viability, T/C [5]: 0.16%
- viability, T/C [26]: 0.2%
- viability, T/C [27]: 0.21%
- viability, T/C [28]: 0.61%
- viability, T/C [29]: 0.27%
- viability, T/C [30]: 0.23%
